What was measured:
Type in all cases: in vivo
[1] = test system: barnyardgrass (Echinochloa crusgalli); assay: Example 18, Procedure II: Herbicide No. 1 + ERADICANE (EPTC + R-25788) with auxiliary antidotes
Procedure: (§1) Containers were filled and compacted with a fumigated silt loam top soil to a depth of about 1.3 cm from the top of the container. A first container was designated as an untreated control, a second container was designated as a herbicide control, and a third container was designated as a herbicide + antidote test container. Each of the containers was seeded with a crop species. A measured amount of herbicide dispersed or dissolved in acetone was applied to a measured quantity of soil. To this same quantity of soil treated with herbicide, there was added a measured amount of antidote dispersed or dissolved in acetone. The quantity of soil treated with the herbicide and antidote was thoroughly mixed to incorporate the herbicide and antidote in the soil uniformly. The seed bed in the third container of soil was covered with the soil treated with the herbicide and antidote and the container was leveled. For each test series, the seed beds of the first and second containers were likewise covered by soil layers. the cover layer of the first container was not treated with herbicide or antidote.
(§2) The containers were then placed on a bench in a greenhouse and sub-irrigated as required for the duration of the test. […] Plant response is measured in terms of percent injury. Antidote efficacy is indicated as the difference in plant injury by the herbicide(s) without the antidote and with the antidote.
(§3) This procedure is the same as Procedure I, but modified in the manner that after incorporation of the chemicals (herbicide and antidote) the containers with the covered seedbed were treated with an initial overhead irrigation equivalent to 0.6 cm rainfall, then subsequently sub-irrigated as required on greenhouse benches.
(§4) In the series of greenhouse tests described below, for routine screening purposes the herbicide/antidote compositions were tested in crop/weed combinations involving corn as the crop and either or both of the weeds barnyardgrass (Echinochloa crusgalli), a monocotyledonous weed, and velvetleaf (Abutilon theophrasti), a dicotyledonous weed. In the tables below, these weeds are indicated by the symbols "BYG" and "VL", respectively.
(§5) In the test reported in this example, the herbicidal composition was similar to that used in Example 16 in that Herbicide No. 1 was combined with EPTC (Herbicide No. 4) as a co-herbicide and the antidotes included Nos. 1, 2, 7, 13 and 15. However, in this test the EPTC was introduced as a formulation of ERADICANE (EPTC + the antidote R-25788, i.e., Antidote No. 1) at an application rate of 8.96 kg/ha. Thus, in this test two antidotes were present, viz. R-25788 and one of the auxilliary antidotes, No. 2, 13 and 15.
(§6) Test procedures were those of Procedure II above.

[2] = test system: velvetleaf (Abutilon theophrasti); assay: as above
Procedure: as §1, §2, §3, §4, §5, §6

[3] = test system: corn; assay: Example 21, Procedure II: Herbicide No. 1 + SUTAN PLUS (butylate + antidote) with antidotes
Procedure: as §1, §2, §3
(§7) In this example, tests were conducted as in the preceding Examples 18-20, except here the co-herbicidal component was SUTAN® PLUS, a commercial product comprising as the active herbicidal ingredient the compound butylate (Herbicide No. 10) and an antidote […] (Antidote No. 1). Again, the antidotal compounds herein were Nos. 1, 2, 7, 13 and 15. Procedure II was used.

[4] = test system: barnyardgrass (Echinochloa crusgalli); assay: as above
Procedure: as §1, §2, §3, §4, §7

[5] = test system: velvetleaf (Abutilon theophrasti); assay: as above
Procedure: as §1, §2, §3, §4, §7

[6] = test system: corn; assay: Example 19, Procedure II: Herbicide No. 1 + ERADICANE EXTRA with added antidotes
Procedure: as §1, §2, §3, §5
The test reported in this example was performed in the same manner and with the same antidotes used in Example 18, the only difference being the substitution of the commercial herbicidal product ERADICANE® EXTRA for ERADICANE®. ERADICANE EXTRA is a formulation containing both an antidote, i.e., R-29148 (Antidote No. 5 herein), and an extender, dietholate.

[7] = test system: corn; assay: Example 9, Procedure II: Herbicide No. 1 + pretilachlor (No. 13) with antidotes
Procedure: as §1, §2, §3
In this example the safening effect on a composition comprising Herbicide No. 1 and another leading rice herbicide, i.e., Herbicide No. 13, was investigated using the same antidotes and test procedure described in the preceding example. Herbicide No. 13 is pretilachlor, active ingredient used in the commercial rice herbicides RIFIT®, SOFIT® and SOFIT® SUPER.

[8] = test system: corn; assay: Example 22: retest of Example 21 at reduced greenhouse temperatures; settings: Table 22
Procedure: as §1, §2, §3, §7
The experiments in this example were designed as a retest of those described in Example 21 in view of the uncharacteristically poor corn safety and weed control, believed to have resulted from unseasonably high temperatures in the greenhouse. Accordingly, temperatures were reduced for these tests.

[9] = test system: barnyardgrass (Echinochloa crusgalli); assay: Example 6, Procedure II: Herbicide No. 1 + alachlor (No. 7) with antidotes
Procedure: as §1, §2, §3, §4
(§8) This example was designed to investigate the antidotal efficacy of a plurality of antidotal compounds against a composition comprising Herbicide No. 1 in combination with Herbicide No. 7 (alachlor). The antidotal compounds used herein were Nos. 1, 2, 7, 13 and 15.
(§9) In this example, Procedure II described above was followed. The data from the tests in this example is shown in Table 6 and represents averages of duplicate replications.

[10] = test system: velvetleaf (Abutilon theophrasti); assay: as above
Procedure: as §1, §2, §3, §4, §8, §9

[11] = Herbicide No.1 0.56 kg/ha + ERADICANE 8.96 kg/ha, no added antidote
[12] = Herbicide No.1 0.56 kg/ha alone
[13] = Herbicide No.1 1.12 kg/ha + ERADICANE 8.96 kg/ha, no added antidote
[14] = Herbicide No.1 1.12 kg/ha alone
[15] = Herbicide No.1 0.56 kg/ha + SUTAN + 8.96 kg/ha, no added antidote
[16] = Herbicide No.1 1.12 kg/ha + SUTAN + 8.96 kg/ha, no added antidote
[17] = Herbicide No.1 0.14 + No.7 4.48 kg/ha, no antidote
[18] = Herbicide No.1 0.14 kg/ha alone
[19] = Herbicide No.1 0.56 + No.7 (alachlor) 4.48 kg/ha, no antidote, average of duplicates
[20] = Herbicide No.1 0.56 kg/ha + ERADICANE 8.96 kg/ha, antidote 2.24 kg/ha
[21] = Herbicide No.1 0.56 kg/ha + ERADICANE 8.96 kg/ha, antidote 8.96 kg/ha
[22] = Herbicide No.1 1.12 kg/ha + ERADICANE 8.96 kg/ha, antidote 2.24 kg/ha
[23] = Herbicide No.1 1.12 kg/ha + ERADICANE 8.96 kg/ha, antidote 8.96 kg/ha
[24] = Herbicide No.1 0.56 kg/ha + SUTAN + 8.96 kg/ha, antidote 2.24 kg/ha
[25] = Herbicide No.1 0.56 kg/ha + SUTAN + 8.96 kg/ha, antidote 8.96 kg/ha
[26] = Herbicide No.1 1.12 kg/ha + SUTAN + 8.96 kg/ha, antidote 2.24 kg/ha
[27] = Herbicide No.1 1.12 kg/ha + SUTAN + 8.96 kg/ha, antidote 8.96 kg/ha
[28] = Herbicide No.1 0.14 + No.7 4.48 kg/ha + antidote 2.24 kg/ha
[29] = Herbicide No.1 0.14 + No.7 4.48 kg/ha + antidote 8.96 kg/ha
[30] = Herbicide No.1 0.56 + No.7 4.48 kg/ha + antidote 2.24 kg/ha
[31] = Herbicide No.1 0.56 + No.7 4.48 kg/ha + antidote 8.96 kg/ha

COC(=O)c1c(Cl)nn(C)c1S(=O)(=O)NC(=O)Nc1nc(OC)cc(OC)n1 [No.1]
% Injury BYG [1, 11]: 90% | % Injury BYG [1, 12]: 30% | % Injury BYG [1, 13]: 85% | % Injury BYG [1, 14]: 55% | % Injury VL [2, 11]: 80% | % Injury VL [2, 12]: 45% | % Injury VL [2, 13]: 75% | % Injury VL [2, 14]: 55% | % Injury Corn [3, 15]: 10% | % Injury Corn [3, 12]: 0% | % Injury Corn [3, 16]: 5% | % Injury Corn [3, 14]: 30% | % Injury BYG [4, 15]: 20% | % Injury BYG [4, 12]: 10% | % Injury BYG [4, 16]: 50% | % Injury BYG [4, 14]: 10% | % Injury VL [5, 15]: 60% | % Injury VL [5, 12]: 50% | % Injury VL [5, 16]: 70% | % Injury VL [5, 14]: 65% | % Injury Corn ([6]; Herbicide No.1 0.56 kg/ha + ERADICANE EXTRA 8.96 kg/ha, no added antidote): 30% | % Injury Corn [6, 12]: 20% | % Injury Corn ([6]; Herbicide No.1 1.12 kg/ha + ERADICANE EXTRA 8.96 kg/ha, no added antidote): 20% | % Injury Corn [6, 14]: 25%

CC1(C)OC(c2ccco2)CN1C(=O)C(Cl)Cl (stereo not drawn) [Antidote No. 15, Oxazolidine, 3-(dichloroacetyl)-5-(2-furanyl)-2,2-dimethyl]
corn injury ([6]; Herbicide No. 1 + ERADICANE EXTRA + added antidote, highest rates of antidotes and herbicides): 25% | safening of corn, assessment in words ([7]; Herbicide Nos. 1 and 13, Table 9): commercial-level safening of corn

COC(=O)c1c(Cl)nn(C)c1S(=O)(=O)NC(=O)Nc1nc(OC)cc(OC)n1 [Herbicide No. 1]
% Injury Corn ([8]; Herbicide No.1 0.56 Kg/ha + SUTAN + 8.96 Kg/ha, no added antidote): 55% | % Injury Corn ([8]; Herbicide No.1 0.56 Kg/ha alone): 60% | % Injury Corn ([8]; Herbicide No.1 1.12 Kg/ha + SUTAN + 8.96 Kg/ha, no added antidote): 60% | % Injury Corn ([8]; Herbicide No.1 1.12 Kg/ha alone): 65% | % Injury BYG [9, 17]: 100% | % Injury BYG [9, 18]: 20% | % Injury BYG [9, 19]: 100% | % Injury BYG [9, 12]: 70% | % Injury VL [10, 17]: 70% | % Injury VL [10, 18]: 40% | % Injury VL [10, 19]: 85% | % Injury VL [10, 12]: 60% | injury to corn ([7]; Herbicide No. 1 0.56 kg/ha + Herbicide No. 13 2.24 kg/ha in combination, no antidote): 65%

O=C1OC(=O)c2cccc3cccc1c23 [compound 2]
% Injury BYG [1, 20]: 93% | % Injury BYG [1, 21]: 85% | % Injury BYG [1, 22]: 85% | % Injury BYG [1, 23]: 95% | % Injury VL [2, 20]: 80% | % Injury VL [2, 21]: 93% | % Injury VL [2, 22]: 70% | % Injury VL [2, 23]: 75% | % Injury Corn [3, 24]: 10% | % Injury Corn [3, 25]: 5% | % Injury Corn [3, 26]: 0% | % Injury Corn [3, 27]: 15% | % Injury BYG [4, 24]: 5% | % Injury BYG [4, 25]: 10% | % Injury BYG [4, 26]: 45% | % Injury BYG [4, 27]: 5% | % Injury VL [5, 24]: 55% | % Injury VL [5, 25]: 65% | % Injury VL [5, 26]: 70% | % Injury VL [5, 27]: 70% | % Injury Corn ([8]; Herbicide No.1 0.56 Kg/ha + SUTAN + 8.96 Kg/ha + antidote 2.24 Kg/ha): 45% | % Injury Corn ([8]; Herbicide No.1 0.56 Kg/ha + SUTAN + 8.96 Kg/ha + antidote 8.96 Kg/ha): 55% | % Injury Corn ([8]; Herbicide No.1 1.12 Kg/ha + SUTAN + 8.96 Kg/ha + antidote 2.24 Kg/ha): 40% | % Injury Corn ([8]; Herbicide No.1 1.12 Kg/ha + SUTAN + 8.96 Kg/ha + antidote 8.96 Kg/ha): 50% | % Injury BYG [9, 28]: 100% | % Injury BYG [9, 29]: 100% | % Injury BYG [9, 30]: 100% | % Injury BYG [9, 31]: 100% | % Injury VL [10, 28]: 70% | % Injury VL [10, 29]: 75% | % Injury VL [10, 30]: 90% | % Injury VL [10, 31]: 90% | % Injury Corn ([6]; Herbicide No.1 0.56 kg/ha + ERADICANE EXTRA 8.96 kg/ha, antidote 2.24 kg/ha): 20% | % Injury Corn ([6]; Herbicide No.1 0.56 kg/ha + ERADICANE EXTRA 8.96 kg/ha, antidote 8.96 kg/ha): 25% | % Injury Corn ([6]; Herbicide No.1 1.12 kg/ha + ERADICANE EXTRA 8.96 kg/ha, antidote 2.24 kg/ha): 25% | % Injury Corn ([6]; Herbicide No.1 1.12 kg/ha + ERADICANE EXTRA 8.96 kg/ha, antidote 8.96 kg/ha): 20%
